According to patent US20030199424A1, “Method of treatment and/or prophylaxis” (priority 2002, published 2003):
“Also recorded” adds a separate entry of the source.

Assays:
STZ-diabetic rats [1] = details: given to rats 4 wks after induction of diabetes with STZ (Maxfield et al., 1993); cited from earlier work
STZ-diabetic rats [2] = experiment: Reversal protocol: AT1 antagonist from 12 wks post-STZ, morphine antinociception; details: oral losartan 20 mg/kg/day for 4 wks commencing 12 wks post-STZ; tested at 16 wks post-STZ
Procedure: STZ-diabetic rats (n=18) were allocated to one of three experimental groups. Groups one and two received once-daily oral administration of antihypertensive doses of one of the AT1-antagonists, viz candesartan (2.0 mg/kg/day)or losartan (20 mg/kg/day), commencing at 12 weeks post-STZ administration (day 0). The third group (control STZ-diabetic rats) received no treatment.
The mean (±SEM) percentage maximum AUC (% Max AUC) was calculated according to the following formula: [formula]
The Mann-Whitney test was used to compare %MAX AUC values between treatment groups. The statistical significance criterion was p<0.05.

| SMILES | Nerve blood flow (NBF) deficits (STZ-diabetic rats [1]) | Reduction in nerve conduction velocity (NCV) (STZ-diabetic rats [1]) | Effect on morphine's antinociceptive effects (s.c. morphine 6.1 mg/kg) (STZ-diabetic rats [2]) |
| --- | --- | --- | --- |
| CCc1cc2c(c(OCc3ccc(-c4ccccc4-c4nnn[nH]4)cc3)c1)CCCC2 [ZD 8731] | significant improvements | completely reverses | – |
| CCCCc1nc(Cl)c(CO)n1Cc1ccc(-c2ccccc2-c2nnn[nH]2)cc1 [losartan] | – | – | preserved morphine's antinociceptive effects; also recorded: morphine sensitivity was preserved |
